Experimental data: ChEMBL document CHEMBL3286379, “Design and synthesis of pyrimidine molecules endowed with thiazolidin-4-one as new anticancer agents” (Eur J Med Chem, 2014)

How the values were obtained:
[1] = test system: Rattus norvegicus; assay: Hepatotoxicity in rat assessed as SGOT level at 0.12 mg/kg, po after 12 days (reference value: 140.23 +/- 1.39 U/mL); format: toxicity, organism-based; parameters: dose 0.12 mg/kg, route oral; details: in vivo, 288 h
[2] = test system: Malme-3M; assay: Growth inhibition of human MALME-3M cells after 48 hrs by sulforhodamine B assay; format: functional
[3] = test system: NCI-H23; assay: Growth inhibition of human NCI-H23 cells after 48 hrs by sulforhodamine B assay; format: functional; details: NCI-H23, 48 h
[4] = test system: KM12; assay: Growth inhibition of human KM12 cells after 48 hrs by sulforhodamine B assay; format: functional; details: KM12, 48 h
[5] = test system: RPMI-8226; assay: Growth inhibition of human RPMI8226 cells after 48 hrs by sulforhodamine B assay; format: functional; details: RPMI-8226, 48 h
[6] = Growth inhibition of human OVCAR5 cells after 48 hrs by sulforhodamine B assay; format: functional; details: OVCAR-5, 48 h
[7] = test system: NCI-H322M; assay: Growth inhibition of human NCI-H322M cells after 48 hrs by sulforhodamine B assay; format: functional
[8] = test system: MCF7; assay: Growth inhibition of human MCF7 cells after 48 hrs by sulforhodamine B assay; format: functional; details: MCF7, 48 h
[9] = test system: COLO 205; assay: Growth inhibition of human COLO205 cells after 48 hrs by sulforhodamine B assay; format: functional; details: COLO 205, 48 h
[10] = test system: SW-620; assay: Growth inhibition of human SW620 cells after 48 hrs by sulforhodamine B assay; format: functional; details: SW-620, 48 h
[11] = Growth inhibition of human HCT15 cells after 48 hrs by sulforhodamine B assay; format: functional; details: HCT-15, 48 h
[12] = Growth inhibition of human BT549 cells after 48 hrs by sulforhodamine B assay; format: functional; details: BT-549, 48 h
[13] = test system: 786-0; assay: Growth inhibition of human 786-0 cells after 48 hrs by sulforhodamine B assay; format: functional; details: 786-0, 48 h
[14] = test system: CCRF-CEM; assay: Growth inhibition of human CCRF-CEM cells after 48 hrs by sulforhodamine B assay; format: functional
[15] = Growth inhibition of human SF539 cells after 48 hrs by sulforhodamine B assay; format: functional; details: SF-539, 48 h
[16] = test system: DU-145; assay: Growth inhibition of human DU145 cells after 48 hrs by sulforhodamine B assay; format: functional; details: DU-145, 48 h
[17] = test system: IGROV-1; assay: Growth inhibition of human IGROV1 cells after 48 hrs by sulforhodamine B assay; format: functional; details: IGROV-1, 48 h
[18] = test system: TK-10; assay: Growth inhibition of human TK10 cells after 48 hrs by sulforhodamine B assay; format: functional; details: TK-10, 48 h
[19] = test system: HL-60(TB); assay: Growth inhibition of human HL-60(TB) cells after 48 hrs by sulforhodamine B assay; format: functional; details: HL-60, 48 h
[20] = test system: SK-OV-3; assay: Growth inhibition of human SKOV3 cells after 48 hrs by sulforhodamine B assay; format: functional; details: SK-OV-3, 48 h
[21] = test system: CAKI-1; assay: Growth inhibition of human CAKI-1 cells after 48 hrs by sulforhodamine B assay; format: functional; details: CAKI-1, 48 h
[22] = read-out: LC50 (the source's name)
[23] = read-out: pLC50 (the source's name) (converted)

`Nc1nc(-c2ccccc2Cl)cc(-c2ccc(Cl)cc2Cl)n1` gave an Activity [1] of 133.47 U/ml, a GI50 ([2]; read-out: GI50) of 17.7 µM and a CC50 [2, 22] greater than 100 µM. The TGI ([2]; read-out: TGI) was greater than 100 µM, the GI50 ([2]; read-out: pGI50 (converted)) was 17.8 µM and the CC50 [2, 23] was greater than 100 µM. It also gave a TGI ([2]; read-out: pTGI) greater than 100 µM, a GI50 ([3]; read-out: GI50) of 12.3 µM and a CC50 [3, 22] greater than 100 µM. For the same compound, the TGI ([3]; read-out: TGI) was greater than 100 µM, the GI50 ([3]; read-out: pGI50 (converted)) was 12.3 µM and the CC50 [3, 23] was greater than 100 µM. For the same compound, the TGI ([3]; read-out: pTGI) was greater than 100 µM, the GI50 ([4]; read-out: GI50) was 4.1 µM and the CC50 [4, 22] was greater than 100 µM. It also gave a TGI ([4]; read-out: TGI) of 31.3 µM, a GI50 ([4]; read-out: pGI50 (converted)) of 4.07 µM and a CC50 [4, 23] greater than 100 µM. It also gave a TGI ([4]; read-out: pTGI (converted)) of 30.9 µM, a GI50 ([5]; read-out: GI50) of 3.1 µM and a CC50 [5, 22] greater than 100 µM. For the same compound, the TGI ([5]; read-out: TGI) was 17.6 µM, the GI50 ([5]; read-out: pGI50 (converted)) was 3.09 µM and the CC50 [5, 23] was greater than 100 µM. The TGI ([5]; read-out: pTGI (converted)) was 17.4 µM, the GI50 ([6]; read-out: GI50) was 8.09 µM and the CC50 [6, 22] was greater than 100 µM. It also gave a TGI ([6]; read-out: TGI) greater than 100 µM, a GI50 ([6]; read-out: pGI50 (converted)) of 8.13 µM and a CC50 [6, 23] greater than 100 µM. For the same compound, the TGI ([6]; read-out: pTGI) was greater than 100 µM, the GI50 ([7]; read-out: GI50) was 31.2 µM and the CC50 [7, 22] was greater than 100 µM. For the same compound, the TGI ([7]; read-out: TGI) was greater than 100 µM, the GI50 ([7]; read-out: pGI50 (converted)) was 30.9 µM and the CC50 [7, 23] was greater than 100 µM. It also gave a TGI ([7]; read-out: pTGI) greater than 100 µM, a GI50 ([8]; read-out: GI50) of 3.45 µM and a CC50 [8, 22] greater than 100 µM. It also gave a TGI ([8]; read-out: TGI) greater than 100 µM, a GI50 ([8]; read-out: pGI50 (converted)) of 3.47 µM and a CC50 [8, 23] greater than 100 µM. The TGI ([8]; read-out: pTGI) was greater than 100 µM, the GI50 ([9]; read-out: GI50) was 3.52 µM and the CC50 [9, 22] was 53 µM. The TGI ([9]; read-out: TGI) was 15.5 µM, the GI50 ([9]; read-out: pGI50 (converted)) was 3.55 µM and the CC50 [9, 23] was 52.5 µM. It also gave a TGI ([9]; read-out: pTGI (converted)) of 15.5 µM, a GI50 ([10]; read-out: GI50) of 3.41 µM and a CC50 [10, 22] greater than 100 µM. For the same compound, the TGI ([10]; read-out: TGI) was greater than 100 µM, the GI50 ([10]; read-out: pGI50 (converted)) was 3.39 µM and the CC50 [10, 23] was greater than 100 µM. For the same compound, the TGI ([10]; read-out: pTGI) was greater than 100 µM, the GI50 ([11]; read-out: GI50) was 5.09 µM and the CC50 [11, 22] was greater than 100 µM. It also gave a TGI ([11]; read-out: TGI) greater than 100 µM, a GI50 ([11]; read-out: pGI50 (converted)) of 5.13 µM and a CC50 [11, 23] greater than 100 µM. The TGI ([11]; read-out: pTGI) was greater than 100 µM, the GI50 ([12]; read-out: GI50) was 13.8 µM and the CC50 [12, 22] was greater than 100 µM. The TGI ([12]; read-out: TGI) was greater than 100 µM, the GI50 ([12]; read-out: pGI50 (converted)) was 13.8 µM and the CC50 [12, 23] was greater than 100 µM. It also gave a TGI ([12]; read-out: pTGI) greater than 100 µM, a GI50 ([13]; read-out: GI50) of 20.2 µM and a CC50 [13, 22] greater than 100 µM. The TGI ([13]; read-out: TGI) was greater than 100 µM, the GI50 ([13]; read-out: pGI50 (converted)) was 20.4 µM and the CC50 [13, 23] was greater than 100 µM. For the same compound, the TGI ([13]; read-out: pTGI) was greater than 100 µM, the GI50 ([14]; read-out: GI50) was 4.17 µM and the CC50 [14, 22] was greater than 100 µM. It also gave a TGI ([14]; read-out: TGI) greater than 100 µM, a GI50 ([14]; read-out: pGI50 (converted)) of 4.17 µM and a CC50 [14, 23] greater than 100 µM. For the same compound, the TGI ([14]; read-out: pTGI) was greater than 100 µM, the GI50 ([15]; read-out: GI50) was 7.39 µM and the CC50 [15, 22] was greater than 100 µM. It also gave a TGI ([15]; read-out: TGI) of 67 µM, a GI50 ([15]; read-out: pGI50 (converted)) of 7.41 µM and a CC50 [15, 23] greater than 100 µM. It also gave a TGI ([15]; read-out: pTGI (converted)) of 67.6 µM, a GI50 ([16]; read-out: GI50) of 5.33 µM and a CC50 [16, 22] greater than 100 µM. For the same compound, the TGI ([16]; read-out: TGI) was 70.1 µM, the GI50 ([16]; read-out: pGI50 (converted)) was 5.37 µM and the CC50 [16, 23] was greater than 100 µM. For the same compound, the TGI ([16]; read-out: pTGI (converted)) was 70.8 µM, the GI50 ([17]; read-out: GI50) was 12.3 µM and the CC50 [17, 22] was greater than 100 µM. The TGI ([17]; read-out: TGI) was greater than 100 µM, the GI50 ([17]; read-out: pGI50 (converted)) was 12.3 µM and the CC50 [17, 23] was greater than 100 µM. It also gave a TGI ([17]; read-out: pTGI) greater than 100 µM, a GI50 ([18]; read-out: GI50) of 9.46 µM and a CC50 [18, 22] greater than 100 µM. It also gave a TGI ([18]; read-out: TGI) of 51 µM, a GI50 ([18]; read-out: pGI50 (converted)) of 9.55 µM and a CC50 [18, 23] greater than 100 µM. For the same compound, the TGI ([18]; read-out: pTGI (converted)) was 51.3 µM, the GI50 ([19]; read-out: GI50) was 3.14 µM and the CC50 [19, 22] was greater than 100 µM. The TGI ([19]; read-out: TGI) was 17.3 µM, the GI50 ([19]; read-out: pGI50 (converted)) was 3.16 µM and the CC50 [19, 23] was greater than 100 µM. For the same compound, the TGI ([19]; read-out: pTGI (converted)) was 17.4 µM, the GI50 ([20]; read-out: GI50) was 10.1 µM and the CC50 [20, 22] was greater than 100 µM. For the same compound, the TGI ([20]; read-out: TGI) was 62.3 µM, the GI50 ([20]; read-out: pGI50 (converted)) was 10 µM and the CC50 [20, 23] was greater than 100 µM. It also gave a TGI ([20]; read-out: pTGI (converted)) of 61.7 µM, a GI50 ([21]; read-out: GI50) of 9.27 µM and a CC50 [21, 22] greater than 100 µM. It also gave a TGI ([21]; read-out: TGI) greater than 100 µM, a GI50 ([21]; read-out: pGI50 (converted)) of 9.33 µM and a CC50 [21, 23] greater than 100 µM. It also gave a TGI ([21]; read-out: pTGI) greater than 100 µM.
